Measurements: US5496947A, “Quinolone carboxylic acid derivatives” (Dong Wha Pharmaceutical Industrial Co., Ltd., priority 1994, dated 1996)
Converted amounts (≈) assume the structure as drawn. Where two headings read alike, the source gives them in different places.

Key:
[1] = test system: Citrobacter freundii ATCC 8090; assay: MIC, 2-fold dilution method in micro-well plate, C. freundii; type: cell-based
Experimental: (§1) The in vitro antibiotic activity of the present compound is measured using 2-fold dilution method with a micro-well plate and the bacteria are inoculated in about 10^5 cfu/ml after an overnight culture in a brain-heart infusion (BHI) broth at 37° C. The novel compounds of the present invention are converted to a hydrochloride salt form and diluted with a sterilized distilled water to make 10 mg/ml aqueous solution. After the mother liquor wherein the compound is diluted to the two-fold concentration has been obtained in the form of an aqueous solution, the respective 0.1 ml of diluted liquor is transferred to a well and is inoculated with 0.1 ml of the culture fluid to make about (10^5 -10^6)/2 cfu/ml.
(§2) After cultivation at 37° C., the minimum inhibitory concentration (MIC) is measured and recorded in Table I-V.
(§3) Table I-V show the minimum inhibitory concentrations (MIC).
Citrobacter freundii ATCC 8090

[2] = test system: Pseudomonas aeruginosa ATCC 27853; assay: MIC, 2-fold dilution method in micro-well plate, P. aeruginosa; type: cell-based
Experimental: as §1, §2, §3
Pseudomonas aeruginosa ATCC 27853

[3] = test system: Shigella flexneri ATCC 12022; assay: MIC, 2-fold dilution method in micro-well plate, S. flexneri; type: cell-based; conditions: S. flexneri ATCC12022, 37° C., read-out: Minimum Inhibitory Concentration
Experimental: as §1, §2, §3
Shigella flexneri ATCC 12022

[4] = test system: Serratia marcescens ATCC 8100; assay: MIC, 2-fold dilution method in micro-well plate, S. marcescens; type: cell-based
Experimental: as §1, §2, §3
Serratia marcescens ATCC 8100

[5] = test system: Acinetobacter calcoaceticus; assay: MIC, 2-fold dilution method in micro-well plate, A. calcoaceticus; type: cell-based
Experimental: as §1, §2
Table I-V show the minimum inhibitory concentrations (MIC). […]

[6] = test system: Enterobacter aerogenes ATCC 13048; assay: MIC, 2-fold dilution method in micro-well plate, E. aerogenes; type: cell-based; conditions: Klebsiella aerogenes
Experimental: as §1, §2, §3
Enterobacter aerogenes ATCC 13048

[7] = test system: Salmonella typhimurium ATCC 14028; assay: MIC, 2-fold dilution method in micro-well plate, S. typhimurium; type: cell-based; conditions: Salmonella enterica, read-out: Minimum Inhibitory Concentration
Experimental: as §1, §2, §3
Salmonella typhimurium ATCC 14028

[8] = test system: Streptococcus faecalis ATCC 19433; assay: MIC, 2-fold dilution method in micro-well plate, S. faecalis ATCC 19433; type: cell-based; conditions: Enterococcus faecalis; S. faecalis ATCC19433, 37° C.; read-out: Minimum Inhibitory Concentration
Experimental: as §1, §2, §3
Streptococcus faecalis ATCC 19433

Enterobacter cloacae = assay: MIC, 2-fold dilution method in micro-well plate, E. cloacae; type: cell-based; conditions: read-out: Minimum Inhibitory Concentration
Experimental: as §1, §2, §3
Enterobacter cloacae ATCC 23355

[9] = test system: Streptococcus pneumoniae ATCC 6303; assay: MIC, 2-fold dilution method in micro-well plate, S. pneumoniae; type: cell-based; conditions: S. pneuinoniae ATCC6303, 37° C., read-out: Minimum Inhibitory Concentration
Experimental: as §1, §2, §3
Streptococcus pneumoniae ATCC 6303

[10] = test system: Streptococcus faecalis ATCC 29212; assay: MIC, 2-fold dilution method in micro-well plate, S. faecalis ATCC 29212; type: cell-based; conditions: Enterococcus faecalis; S. faecalis ATCC29212, 37° C.; read-out: Minimum Inhibitory Concentration
Experimental: as §1, §2, §3
Streptococcus faecalis ATCC 29212

[11] = test system: Klebsiella pneumoniae ATCC 13883; assay: MIC, 2-fold dilution method in micro-well plate, K. pneumoniae; type: cell-based
Experimental: as §1, §2, §3
Klebsiella pneumoniae ATCC 13883

[12] = test system: Haemophilus influenza ATCC 35056; assay: MIC, 2-fold dilution method in micro-well plate, H. influenzae; type: cell-based; conditions: H. influenzae ATCC35056, 37° C.; read-out: Minimum Inhibitory Concentration
Experimental: as §1, §2, §3
Haemophilus influenza ATCC 35056

[13] = test system: Proteus vulgaris ATCC 13315; assay: MIC, 2-fold dilution method in micro-well plate, P. vulgaris; type: cell-based
Experimental: as §1, §2, §3
Proteus vulgaris ATCC 13315

[14] = test system: Streptococcus pyrogens ATCC 19615; assay: MIC, 2-fold dilution method in micro-well plate, S. pyrogens; type: cell-based; conditions: S. pyrogenes ATCC19615, 37° C., read-out: Minimum Inhibitory Concentration
Experimental: as §1, §2, §3
Streptococcus pyrogens ATCC 19615

[15] = test system: Shigella sonnei ATCC 25931; assay: MIC, 2-fold dilution method in micro-well plate, S. sonnei; type: cell-based; conditions: S. sonnei ATCC25931, 37° C., read-out: Minimum Inhibitory Concentration
Experimental: as §1, §2, §3
Shigella sonnei ATCC 25931

[16] = test system: Escherichia coli ATCC 25922; assay: MIC, 2-fold dilution method in micro-well plate, E. coli; type: cell-based
Experimental: as §1, §2, §3
Escherichia coli ATCC 25922

[17] = Pharmacokinetic properties in ICR mouse, oral and subcutaneous, Bio-Assay (Agar well method); type: in vivo; conditions: 40 mg/kg, average of four tests; for dose excreted: urine, read-out: Urine Recovery
Experimental: The pharmacokinetic properties are tested by orally administrating and subcutaneously injecting a test compound and a substance for control to a ICR Mouse with 22 g±10% weight, drawing blood after 10, 20, 30, 45, 60, 90, 120, 150, 180 and […] and analyzed by Bio-Assay (Agar well method).

[18] = ATCC8090, read-out: Minimum Inhibitory Concentration
[19] = P. aerugirnosa ATCC27853, 37° C., read-out: Minimum Inhibitory Concentration
[20] = ATCC8100, read-out: Minimum Inhibitory Concentration
[21] = E. aerogenes ATCC13048, 37° C., read-out: Minimum Inhibitory Concentration
[22] = S. typhisurium ATCC14028, 37° C.
[23] = K. pneumoniae ATCC13883, 37° C., read-out: Minimum Inhibitory Concentration
[24] = P. vulgaris ATCC13315, 37° C., read-out: Minimum Inhibitory Concentration
[25] = E. coli ATCC25922, 37° C., read-out: Minimum Inhibitory Concentration
[26] = S. marcescens ATCC8100, 37° C., read-out: Minimum Inhibitory Concentration
[27] = A. calcoaceticus ATCC8090 (as in tables), 37° C., read-out: Minimum Inhibitory Concentration
[28] = ATCC13048, read-out: Minimum Inhibitory Concentration
[29] = E. cloacae ATCC23355 (as in tables), 37° C.
[30] = ATCC13883, read-out: Minimum Inhibitory Concentration
[31] = ATCC13315, read-out: Minimum Inhibitory Concentration
[32] = C. freundii ATCC8090, 37° C., read-out: Minimum Inhibitory Concentration
[33] = ATCC25922, read-out: Minimum Inhibitory Concentration

Row | SMILES | MIC [1, 18] [µg/mL] | MIC [2, 19] [µg/mL] | MIC [3] [µg/mL] | MIC [4, 20] [µg/mL] | MIC [5, 18] [µg/mL] | MIC [6, 21] [µg/mL] | MIC [8] [µg/mL] | MIC (Enterobacter cloacae) [µg/mL] | MIC [9] [µg/mL] | MIC [10] [µg/mL] | MIC [11, 23] [µg/mL] | MIC [12] [µg/mL] | MIC [13, 24] [µg/mL] | MIC [14] [µg/mL] | MIC [15] [µg/mL] | MIC [16, 25] [µg/mL] | MIC [4, 26] [µg/mL] | MIC [6, 28] [µg/mL] | MIC [7] [µg/mL] | MIC [11, 30] [µg/mL] | further results
1 | CC1CN(c2c(F)cc3c(=O)c(C(=O)O)cn(-c4ccc(F)cn4)c3c2F)CC(C)N1.Cl (centres unmarked) [Example 26, 1-(5-fluoro-2-pyridyl)-6,8-difluoro-7-(3,5-dimethyl-1-piperazinyl)-1,4-dihydro-4-oxoquinoline-3-carboxylic acid hydrochloride] | 1.25 | 0.625 | 0.313 | 1.25 | 1.25 | 0.625 | 5 | 1.25 | 5 | 5 | 0.625 | 1.25 | 0.255 | 10 | 0.313 | 0.625 |  |  |  |  | MIC [7, 22]: 0.625 µg/mL
2 | N[C@H]1CCN(c2cc3c(cc2F)c(=O)c(C(=O)O)cn3-c2ccncc2F)C1 [Example 6, 1-(3-fluoro-4-pyridyl)-6-fluoro-7-[(3S)-3-amino-1-pyrrolidinyl]-1,4-dihydro-4-oxoquinoline-3-carboxylic acid] | 0.313 (≈ 0.81 µM) | 0.156 (≈ 0.404 µM) | 0.313 (≈ 0.81 µM) |  |  |  | 1.25 (≈ 3.24 µM) |  | 2.5 (≈ 6.47 µM) | 2.5 (≈ 6.47 µM) | 0.156 (≈ 0.404 µM) | 0.313 (≈ 0.81 µM) | 0.078 (≈ 0.202 µM) | 2.5 (≈ 6.47 µM) | 0.02 (≈ 0.0518 µM) | 0.078 (≈ 0.202 µM) | 0.078 (≈ 0.202 µM) | 0.313 (≈ 0.81 µM) |  |  | MIC [5, 27]: 0.156 µg/mL (≈ 0.404 µM); MIC [7, 22]: 0.156 µg/mL (≈ 0.404 µM); MIC (Enterobacter cloacae; [29]): 0.156 µg/mL (≈ 0.404 µM)
3 | CN1CCN(c2cc3c(cc2F)c(=O)c(C(=O)O)cn3-c2ccncc2F)CC1.Cl [Example 2, 1-(3-fluoro-4-pyridyl)-6-fluoro-7-(4-methyl-1-piperazinyl)-1,4-dihydro-4-oxoquinoline-3-carboxylic acid hydrochloride] | 0.625 | 0.625 | 0.625 | 0.625 | 0.625 | 1.25 | 5 | 0.625 | 10 | 5 |  | 0.625 |  | 10 | 0.625 | 1.25 |  |  | 0.625 | 0.625 | MIC [13, 31]: 0.625 µg/mL
4 | CN1CCN(c2nc3c(cc2F)c(=O)c(C(=O)O)cn3-c2ccncc2F)CC1.Cl [Example 8, 1-(3-fluoro-4-pyridyl)-6-fluoro-7-(4-methyl-1-piperazinyl)-1,4-dihydro-4-oxo-1,8-naphthyridine-3-carboxylic acid hydrochloride] |  |  | 0.313 | 0.625 |  |  | 5 | 0.625 | 5 | 5 |  | 0.625 |  | 10 | 0.625 |  |  | 0.625 | 0.313 | 0.625 | MIC [1, 32]: 1.25 µg/mL; MIC ([2]; ATCC27853, read-out: Minimum Inhibitory Concentration): 0.625 µg/mL; MIC [5, 27]: 1.25 µg/mL; MIC [13, 31]: 0.313 µg/mL; MIC [16, 33]: 0.313 µg/mL
5 | Cl.NC1CCN(c2cc3c(cc2F)c(=O)c(C(=O)O)cn3-c2ccc(F)cn2)C1 (centres unmarked) [Example 21, 1-(5-fluoro-2-pyridyl)-6-fluoro-7-(3-amino-1-pyrrolidinyl)-1,4-dihydro-4-oxoquinoline-3-carboxylic acid hydrochloride] |  | 0.313 | 0.078 |  | 0.156 |  | 1.25 | 0.156 | 2.5 | 1.25 | 0.078 | 0.078 | 0.078 | 2.5 | 0.02 | 0.078 | 0.078 | 0.156 | 0.156 |  | MIC [1, 32]: 0.078 µg/mL
6 | Cl.O=C(O)c1cn(-c2ccncc2F)c2cc(N3CCNCC3)c(F)cc2c1=O [Example 1, 1-(3-fluoro-4-pyridyl)-6-fluoro-7-(1-piperazinyl)-1,4-dihydro-4-oxoquinoline-3-carboxylic acid hydrochloride] |  | 0.625 | 0.625 |  | 0.625 | 1.25 | 5 | 0.625 | 2.5 | 5 |  | 0.625 |  | 5 | 0.625 | 1.25 | 0.313 |  | 0.625 | 0.625 | MIC [1, 32]: 1.25 µg/mL; MIC [13, 31]: 0.625 µg/mL
7 | CN1CCN(c2c(F)cc3c(=O)c(C(=O)O)cn(-c4ccc(F)cn4)c3c2F)CC1.Cl [Example 24, 1-(5-fluoro-2-pyridyl)-6,8-difluoro-7-(4-methyl-1-piperazinyl)-1,4-dihydro-4-oxoquinoline-3-carboxylic acid hydrochloride] | 0.625 | 0.625 | 0.625 | 0.625 | 0.625 |  | 5 | 0.625 | 5 | 2.5 |  | 0.313 |  | 10 | 0.156 |  |  | 0.625 | 0.313 | 0.625 | MIC [13, 31]: 0.625 µg/mL; MIC [16, 33]: 0.625 µg/mL
8 | Cl.NC1CCN(c2c(F)cc3c(=O)c(C(=O)O)cn(-c4ccc(F)cn4)c3c2F)C1 (centres unmarked) [Example 27, 1-(5-fluoro-2-pyridyl)-6,8-difluoro-7-(3-amino-1-pyrrolidinyl)-1,4-dihydro-4-oxoquinoline-3-carboxylic acid hydrochloride] |  | 0.313 | 0.078 |  |  | 0.156 | 1.25 |  | 2.5 | 2.5 | 0.156 | 0.078 | 0.156 | 2.5 | 0.005 | 0.078 | 0.313 |  |  |  | MIC [1, 32]: 0.156 µg/mL; MIC [5, 27]: 0.313 µg/mL; MIC [7, 22]: 0.078 µg/mL; MIC (Enterobacter cloacae; [29]): 0.313 µg/mL
9 | CC1COc2c(N3CCN(C)CC3)c(F)cc3c(=O)c(C(=O)O)cn1c23 (centres unmarked) [Ofloxacin, reference compound] |  |  |  |  |  |  |  |  |  |  |  |  |  |  |  |  |  |  |  |  | AUC ([17]; blood, po, P.O): 12800 ng·h/mL; Cmax ([17]; blood, po, P.O): 9410 ng/mL; Tmax ([17]; blood, po, P.O): 45 min; bioavailability ([17]; blood, po, P.O): 89.8%; AUC ([17]; blood, sc, S.C): 14200 ng·h/mL; Cmax ([17]; blood, sc, S.C): 12900 ng/mL; Tmax ([17]; blood, sc, S.C): 25.2 min; half-life ([17]; blood, sc, S.C): 25.2 min; dose excreted ([17]; po, P.O): 32.2%; dose excreted ([17]; sc, S.C): 39.1%
